Reference: article PMC7967160, “Synthesis and Antiviral Evaluation of (1,4-Disubstituted-1,2,3-Triazol)-(E)-2-Methyl-but-2-Enyl Nucleoside Phosphonate Prodrugs” (Molecules, 2021)
Several values for one entry are separate records, joined by “and”; a condition that tells them apart may be missing. Equal values may be shown once.

How the values were obtained:
in vitro [1] = test: in vitro
hepatitis B virus (HBV) = test: Anti-HBV activity of compound 6 (unpublished data); type: cell-based; conditions: read-out: EC50 (HBV)
HBV [2] = test: HBV assay in Huh7 cells transfected with pCI_HBVpg1820, intracapsid viral DNA by real-time PCR; type: cell-based, hepatitis B virus (HBV); conditions: for inhibition at 10 µM: Hepatitis B virus, Huh-7, 96 h
Experimental: In Huh7 cells: antiviral activity against HBV in cell culture was measured as previously described. Briefly, Huh7 cells were transfected with plasmid pCI_HBVpg1820 containing 1.1 unit of HBV genome under the control of a human cytomegalovirus (CMV) promoter. The drugs were stored at 1000× in DMSO at −20 °C. For each experiment, the drugs were diluted in DMEM cell culture medium (Thermo Fisher Scientific, Artenay, France) to a final concentration of 10 μM. All drugs were tested in triplicate in two independent experiments. After 4 days of culture, intracapsid viral DNA was quantified by duplex real-time PCR, using primers described elsewhere, on a LightCycler 480 II apparatus (Roche Diagnostics France, Meylan, France) using TaqMan Universal PCR Mastermix II without UNG (Thermo Fisher Scientific, Artenay, France). Cells were quantified using primers by real-time PCR, using primers HPRT1_F (5′-[…]) and HPRT1_R (5′-[…]), on a LightCycler 480 II apparatus (Roche) using a LightCycler® 480 SYBR Green I Master (Roche Diagnostics France, Meylan, France). Cycling reactions were performed with the following parameters: 5 min at 95 °C, followed by 45 cycles of 10 s at 95 °C, 15 s at 60 °C, 10 s at 72 °C. The inhibition of HBV replication (%) and cell culture viability (%) were quantified using the following formulas. Inhibition of HBV replication (%)=1− HBV DNA copy numberDrug/HBV DNA copy numberCell culture medium Cell viability (%)= HPRT1 DNA copy numberDrug/HPRT1 DNA copy numberCell culture medium

[3] = Cell culture viability in the Huh7 HBV assay (HPRT1 DNA copy number); conditions: human
HIV-1 LAI = test: HIV assay in human PBM cells infected with HIV-1 LAI, RT quantification; type: cell-based; conditions: Human immunodeficiency virus 1, PBMC; 10 μM, PBM cells, HIV-1 LAI
Experimental: The assay was performed as described by Schinazi et al. with minor modifications. […] The supernatants were harvested, and the HIV-1 RT was quantified.

[4] = tested on: SARS-CoV-2 strain BavPat1; test: SARS-CoV-2 assay in Vero E6 cells (CellTiter-Blue); conditions: 10 μM
[5] = Cytotoxicity MTS assay in HepG2 cells; type: cell-based; conditions: human
Experimental: (§1) Assays were performed in human peripheral blood mononuclear (PBM) and human liver (HepG2) cells via MTS assay using the CellTiter 96® Non-Radioactive Cell Proliferation (Promega) kit as previously described^3. Cytotoxicity was expressed as the concentration of test compounds that inhibited cell proliferation by 50% (IC50) and calculated using the Chou and Talalay method.

HBV [6] = test: HBV assay in HepAD38 cells, real-time PCR for HBV DNA in supernatant; type: cell-based; conditions: Hepatitis B virus, 168 h, 7 days
Experimental: In HepAD38 cells were seeded at 50,000 cells/well in collagen-coated 96-well plates. Test compounds or 2′,3′-didéoxy-3′-thiacytidin (3TC) (control) were added to HepAD38 cells to a final concentration of 10 μM.
Real-Time PCR for HBV DNA. The experiment lasted 7 days. On day 7, total DNA was purified from the supernatant using a commercially available kit (DNeasy 96 Blood & Tissue kit, Qiagen). The HBV DNA was amplified in a real-time PCR assay using a LightCycler 480 (Roche) as described elsewhere. All samples were tested in duplicate in two to three independent experiments. Analysis: The concentration of compound that inhibited HBV DNA replication by 50% (EC50) was determined by linear regression.

in vitro [7] = type: cell-based; conditions: human; PBM cells; read-out: MTS Cytotoxicity (IC50, μM) PBM
Experimental: as §1

CEM cells = tested on: CEM cells; set-up: method as in PMID 23911854; conditions: cited from earlier work
[8] = tested on: human hepatitis C virus (HCV); set-up: method as in PMID 23911854; conditions: at 10 μM; cited from earlier work
in vitro [9] = conditions: human
[10] = read-out: HBV % Inhibition Huh7, 10 μM, Huh7 cells, 4 days
[11] = 10 μM, Huh7 cells, 4 days, read-out: HBV % Inhibition Huh7

SMILES: C/C(=C\CP(=O)(OCOC(=O)OC(C)C)OCOC(=O)OC(C)C)Cn1cnc2c(O)nc(N)nc21 [Compound 6, bis(POC)-(E)-2-methyl-but-2-enylguanine]
- CC50 (in vitro [1]): > 100 µM
- EC50 (hepatitis B virus (HBV)): 8.5 µM

SMILES: CCCc1ccc(-c2cn(C/C(C)=C/CP(=O)(OCOC(=O)OC(C)C)OCOC(=O)OC(C)C)nn2)cc1 [Compound 11a, [[(E)-4-[4-(4-Propylphenyl)triazol-1-yl]-3-methyl-but-2-enyl]-(isopropoxycarbonyloxymethoxy)phosphoryl]oxymethyl isopropyl carbonate]
- HBV % Inhibition Huh7 (HBV [2]; 10 μM, Huh7 cells, 4 days): 51%
- inhibition at 10 µM (HBV [2]; [10]): > 40%
- viability at 4 days, 10 µM [3]: 96%
- inhibition at 10 µM (HIV-1 LAI): < 1%
- SARS-CoV-2 % Inhibition Vero E6 [4]: <1%
- IC50 [5]: 18.3 µM
- inhibition at 10 µM (HBV [6]): 19.6%
- IC50 (in vitro [7]): 50.2 µM

SMILES: C/C(=C\CP(=O)(OCOC(=O)OC(C)C)OCOC(=O)OC(C)C)Cn1cc(C=O)nn1 [Compound 11i, [[(E)-4-(4-Formyltriazol-1-yl)-3-methyl-but-2-enyl]-(isopropoxycarbonyloxymethoxy)phosphoryl]oxymethyl isopropyl carbonate]
- inhibition at 10 µM (HBV [2]; [11]): 33%
- viability at 4 days, 10 µM [3]: 95%
- inhibition at 10 µM (HIV-1 LAI): 28.4%
- SARS-CoV-2 % Inhibition Vero E6 [4]: <1%
- IC50 [5]: > 100 µM
- inhibition at 10 µM (HBV [6]): 6.1%
- IC50 (in vitro [7]): 75.1 µM

SMILES: CCCc1ccc(-c2cn(C/C=C/CP(=O)(OCOC(=O)C(C)(C)C)OCOC(=O)C(C)(C)C)nn2)cc1 [Compound 5]
- CC50 (CEM cells): 55.3 µM
- % of inhibition (HCV) [8]: 95.6% and 95%

SMILES: CCCCCCCCCCCCCCCCOCCCOP(=O)(C/C=C(\C)Cn1cc(C(N)=O)nn1)OCOC(=O)OC(C)C (stereo not drawn) [Compound 15j, [[(E)-4-(4-Carbamoyltriazol-1-yl)-3-methyl-but-2-enyl]-(3-hexadecyloxypropoxy)phosphoryl]oxymethyl isopropyl carbonate]
- inhibition at 10 µM (HBV [2]; [11]): 62%
- viability at 4 days, 10 µM [3]: 74%
- inhibition at 10 µM (HIV-1 LAI): 32.2%
- SARS-CoV-2 % Inhibition Vero E6 [4]: <1%
- IC50 [5]: 66.4 µM
- inhibition at 10 µM (HBV [6]): < 1%
- IC50 (in vitro [7]): 43.1 µM

SMILES: CCOC(=O)c1cn(C/C(C)=C/CP(=O)(OCOC(=O)OC(C)C)OCOC(=O)OC(C)C)nn1 [Compound 11o, Ethyl-1-[(E)-4-[bis(isopropoxycarbonyloxymethoxy)phosphoryl]-2-methyl-but-2-enyl]triazole-4-carboxylate]
- inhibition at 10 µM (HBV [2]; [11]): < 1%
- viability at 4 days, 10 µM [3]: 60%
- inhibition at 10 µM (HIV-1 LAI): 22.4%
- SARS-CoV-2 % Inhibition Vero E6 [4]: <1%
- IC50 [5]: > 100 µM
- inhibition at 10 µM (HBV [6]): 41.2%
- IC50 (in vitro [7]): 67.5 µM

SMILES: CNC(=O)c1cn(C/C(C)=C/CP(=O)(OCOC(=O)OC(C)C)OCOC(=O)OC(C)C)nn1 [Compound 11p, [[(E)-4-(4-Methylcarbamoyltriazol-1-yl)-3-methyl-but-2-enyl]-(isopropoxycarbonyloxymethoxy)phosphoryl]oxymethyl isopropyl carbonate]
- inhibition at 10 µM (HBV [2]; [11]): 14%
- viability at 4 days, 10 µM [3]: 54%
- inhibition at 10 µM (HIV-1 LAI): 36.4%
- SARS-CoV-2 % Inhibition Vero E6 [4]: <1%
- IC50 [5]: > 100 µM
- inhibition at 10 µM (HBV [6]): < 1%
- IC50 (in vitro [7]): 78.3 µM

SMILES: CCCCCCCc1ccc(-c2cn(C/C(C)=C/CP(=O)(OCOC(=O)OC(C)C)OCOC(=O)OC(C)C)nn2)cc1 [Compound 11e, [[(E)-4-[4-(4-Heptylphenyl)triazol-1-yl]-3-methyl-but-2-enyl]-(isopropoxycarbonyloxymethoxy)phosphoryl]oxymethyl isopropyl carbonate]
- HBV % Inhibition Huh7 (HBV [2]; 10 μM, Huh7 cells, 4 days): 50%
- inhibition at 10 µM (HBV [2]; [10]): > 40%
- viability at 4 days, 10 µM [3]: 95%
- inhibition at 10 µM (HIV-1 LAI): 29.9%
- SARS-CoV-2 % Inhibition Vero E6 [4]: <1%
- IC50 [5]: 90.8 µM
- inhibition at 10 µM (HBV [6]): 33.5%
- IC50 (in vitro [7]): 9.2 µM

SMILES: C=C1[C@H](CO)[C@@H](O)C[C@@H]1n1cnc2c(=O)[nH]c(N)nc21 [Entecavir, reference compound]
- viability at 4 days, 10 µM (in vitro [9]): 96%
- inhibition at 10 µM (HBV [2]; [11]): 92%

SMILES: C/C(=C\CP(=O)(OCOC(=O)OC(C)C)OCOC(=O)OC(C)C)Cn1cc(-c2ccc([N+](=O)[O-])cc2)nn1 [Compound 11l, [[(E)-4-(4-Nitrophenyltriazol-1-yl)-3-methyl-but-2-enyl]-(isopropoxycarbonyloxymethoxy)phosphoryl]oxymethyl isopropyl carbonate]
- HBV % Inhibition Huh7 (HBV [2]; 10 μM, Huh7 cells, 4 days): 40%
- inhibition at 10 µM (HBV [2]; [10]): > 40%
- anti-HBV activity in words (HBV [2]; compared to entecavir (Huh7) and lamivudine (HepAd38)): good activity
- viability at 4 days, 10 µM [3]: 100%
- inhibition at 10 µM (HIV-1 LAI): 38.8%
- SARS-CoV-2 % Inhibition Vero E6 [4]: 10%
- IC50 [5]: 85.3 µM
- inhibition at 10 µM (HBV [6]): 42.6%
- IC50 (in vitro [7]): 23.5 µM

SMILES: CCCCCCCC(=O)NCc1cn(C/C(C)=C/CP(=O)(OCOC(=O)OC(C)C)OCOC(=O)OC(C)C)nn1 [Compound 11k, [[(E)-4-(4-Octanoylaminomethyltriazol-1-yl)-3-methyl-but-2-enyl]-(isopropoxycarbonyloxymethoxy)phosphoryl]oxymethyl isopropyl carbonate]
- inhibition at 10 µM (HBV [2]; [11]): < 1%
- viability at 4 days, 10 µM [3]: 100%
- inhibition at 10 µM (HIV-1 LAI): 42%
- SARS-CoV-2 % Inhibition Vero E6 [4]: 5%
- IC50 [5]: 57.3 µM
- inhibition at 10 µM (HBV [6]): 6.1%
- IC50 (in vitro [7]): 51.5 µM

SMILES: COC(=O)c1cn(C/C(C)=C/CP(=O)(OCOC(=O)OC(C)C)OCOC(=O)OC(C)C)nn1 [Compound 11n, Methyl-1-[(E)-4-[bis(isopropoxycarbonyloxymethoxy)phosphoryl]-2-methyl-but-2-enyl]triazole-4-carboxylate]
- inhibition at 10 µM (HBV [2]; [11]): 28%
- viability at 4 days, 10 µM [3]: 60%
- inhibition at 10 µM (HIV-1 LAI): < 1%
- SARS-CoV-2 % Inhibition Vero E6 [4]: <1%
- IC50 [5]: > 100 µM
- inhibition at 10 µM (HBV [6]): 3.9%
- IC50 (in vitro [7]): 40.9 µM

SMILES: CCCCCc1ccc(-c2cn(C/C(C)=C/CP(=O)(OCOC(=O)OC(C)C)OCOC(=O)OC(C)C)nn2)cc1 [Compound 11c, [[(E)-4-[4-(4-Pentylphenyl)triazol-1-yl]-3-methyl-but-2-enyl]-(isopropoxycarbonyloxymethoxy)phosphoryl]oxymethyl isopropyl carbonate]
- HBV % Inhibition Huh7 (HBV [2]; 10 μM, Huh7 cells, 4 days): 42%
- inhibition at 10 µM (HBV [2]; [10]): > 40%
- viability at 4 days, 10 µM [3]: 89%
- inhibition at 10 µM (HIV-1 LAI): 44.4%
- SARS-CoV-2 % Inhibition Vero E6 [4]: <1%
- IC50 [5]: 51.8 µM
- inhibition at 10 µM (HBV [6]): < 1%
- IC50 (in vitro [7]): 47.8 µM
